According to patent US20080241194A1, “COMPOSITIONS AND METHODS FOR PROTECTING ORGANS, TISSUE AND CELLS FROM IMMUNE SYSTEM-MEDIATED DAMAGE” (THE BOARD OF TRUSTEES OF THE LELAND STANFORD JUNIOR …, priority 1998, published 2008):
Ends that are not written are not given here.

Legend:
[1] = Solubility of synthesized peptide; assay type: physicochemical; details: used in PBS and RPMI 1640
Method: A hydrophilic 9 mer peptide of the sequence […] (SEQ ID NO:3) which corresponds to the region of shared homology of Hsp47 with HLA-A2 was synthesized by the Stanford PAN facility on a BioApplied® peptide synthesizer, HPLC purified and verified by amino acid sequencing. Pure peptide was lyophilized and stored at −20° C.

[2] = test system: OCI-Ly8 tumor cell; test: ^51Cr release CIK cytotoxicity assay, tumor targets; assay type: cell-based, human; details: peptide 10 μM, E:T 20:1
Method: (§1) Target cells were metabolically labelled with ^51Cr (Dupont—New England Nuclear, Boston, Mass.) by incubating 1×10^6 cells in […] ^51Cr at 37° C. for 1-1.5 hours. The labelled cells were washed three times with phosphate buffered saline (PBS) containing 0.1% bovine serum albumin. The labelled cells were distributed in flat-bottomed 96 well microtiter plates at a concentration of 2×10^4 cells/well in triplicate. Effector (CIK) cells were added at the indicated ratios. Mabs were added prior to the addition of effector cells, and incubated for 15-30 minutes at room temperature. The final volume of the assay mixture in each well was 0.2 ml. After 4 hours at 37° C., the cells were collected by centrifugation and an aliquot of the supernatant was counted in a gamma counter (Micromedic Systems, Horsham, Pa.). The percentage of specific ^51Cr release was calculated according to the following equation: […]
Spontaneous release was obtained by incubating the labelled cells in complete medium alone and maximal release by treatment of the cells with 1% NP-40. […]

[3] = test system: Balb/c mice; test: Murine GvHD model, bone marrow transplant; assay type: in vivo, mouse; details: for protection from GvHD: 300 μg Hsp47-Gst protein with graft cells, single injection day 0, monitored 4 weeks, 5 animals
Method: Male Balb/c mice were twice irradiated with 500 Rads prior to transplantation. Bone marrow (BM) and spleen derived stem cells were obtained from B10D2 (H-2^d background) mice. 2.5×10^6 BM and 1×10^6 spleen cells were pooled as a graft source for each recipient male Balb/c animal. This non-enriched stem cell population of cells were either suspended in RPMI containing 300 μg Hsp47-Gst protein in 300 μl total volume, or, in buffer containing 100 μg of Gst control protein alone. Cells and protein were given in a single injection on day 0. No other immunosuppressive treatments were given. Animals were monitored for 4 weeks after the bone marrow transplant.

[4] = molecular target: T1, granzyme A (Homo sapiens, UniProt P12544); test: BLT esterase or SDS-PAGE gelshift assays with granzymes; assay type: biochemical; details: data not shown
T1 sequence (P12544 29-262): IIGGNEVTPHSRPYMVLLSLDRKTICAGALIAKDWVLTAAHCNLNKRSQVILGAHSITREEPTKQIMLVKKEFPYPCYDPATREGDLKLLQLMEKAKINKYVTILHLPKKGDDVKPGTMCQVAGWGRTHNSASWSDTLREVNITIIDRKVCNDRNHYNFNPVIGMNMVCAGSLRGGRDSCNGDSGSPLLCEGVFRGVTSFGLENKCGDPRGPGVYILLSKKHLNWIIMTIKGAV
Excerpt: By sequence homology, Hsp47 is a serine protease inhibitor with theoretical specificity for lysine at the active site of incoming serine proteases. Serpins act as “bait” representing cleavable substrates which form a stable instead of a transitory covalent bond with the active center of serine proteases. […] Thus, serpins inactivate serine proteases in a stoichiometric ratio of 1:1. Despite the sequence relationship, no substrate serine protease has so far been identified for Hsp47. Some authors expect the serpin-domain to be nonfunctional because its “active site” amino acids are modified (Hirayoshi et al., Mol Cell Biol 11:4036-4044 (1991)). […] In ^51Cr-release assays, deletion of the serpin domain led to loss of function of the affected truncation mutants. However, as further deletions of the gene re-established full function to the smaller truncated Hsp47 mutants, expressing then little more than the H1,A-A2-consensus region discussed below, we assume that the loss of function of the C-terminal truncation of Hsp47's serpin domain causes a conformational change in the protein which normalizes with further truncation. […]

[5] = test system: HUVEC; test: ^51Cr release CIK cytotoxicity assay, endothelial cell targets pre-treated with BFA, protein or peptide; assay type: cell-based, human
Method: as §1
Spontaneous release was obtained by incubating the labelled cells in complete medium alone and maximal release by treatment of the cells with 1% NP-40.
For brefeldin A (BFA) treatment, freshly confluent HUVEC monolayers, nonadherent target cells or CIK cells at 0.5-2×10^6 cells per ml were incubated with medium supplemented with 0.5-10 μg of brefeldin A (B6hringer Mannheim GmbH, Mannheim, Germany) per ml medium and incubated for 2-6 hours in a humidified incubator with 5% carbon dioxide at 37° C. BFA was dissolved at 100 μg per ml in 70% ethanol and used fresh or stored up to 4 weeks at −20° C. Prior to cytotoxicity assay the cells were rinsed three times with PBS, and fresh medium not containing BFA was added for the remainder of the assay (FIG. 4).
Both HUVEC and OCI-Ly8 cells were incubated with BFA at concentrations of 0, 2.5, 5, 7.5 and 10 μM for 6 hours as described above, washed, labeled with ^51Cr and used in a cytotoxicity assay with d21 CIK cells at an E:T ratio of 20:1. Preincubation of EC targets with 2.5 μM BFA reduced CIK mediated cytotoxicity by 40%.
Subsequent to ^51Cr labeling but prior to addition of effector cells 10-200 μg FPLC purified Hsp47 (Example 7) protein or 10 nM to 10 μM HPLC purified peptide […] (SEQ ID NO:3) (Example 8), both in sterile PBS at pH 7.4 and diluted to the final concentration with RPMI, were added to targets per ml of medium and incubated for 30 minutes at 37° C. in a humidified atmosphere of 5% CO2. In assays using purified protein, targets were subjected to three subsequent washes with 10 volumes of Ca^2+, Mg^2+ and 5% FCS containing PBS prior to providing fresh standard culture medium to the target cells. In assays using purified peptide, the added peptide was present for the entire assay. The remainder of the assay was performed as detailed above, at 37° C. in a humidified atmosphere of 5% CO2.

[6] = test system: mature d21 CIK; test: FACS analysis of mature d21 CIK with eGFP-tagged huHsp47 probe; assay type: binding, human; details: 10 μg eGFP-huHsp47 per ml, PE-CD56 co-staining
Method: For Fluorescence Activated Cell Sorting (FACS) 10^6 effector or target cells were washed twice with Ca^2+, Mg^2+ and 5% FCS containing PBS buffer, suspended in 50 μl of this buffer and placed at 0-4° C. in the dark. 1 μg of FITC-, PE-, Per-CP or TriColor labelled monoclonal antibody (Beckton Dickinson, San Jose, Calif.) per staining reaction of 10^6 cells was mixed with the cells and incubated for 15 to 30 minutes at 0-4° C. in the dark. Stained cells were subjected to three subsequent washes with 10 volumes of Ca^2+, Mg^2+ and 5% FCS containing PBS and taken up in 500 μl of this buffer for analysis or sort by FACScan/FACStar (Beckton Dickinson, San Jose, Calif.) with excitation at 488 nm and the appropriate channel filters for detection of emission.
The huHsp47δRDEL-enhanced green fluorescent protein (eGFP) fusion protein, expressed under the control of the CMV IE promoter, was isolated as described above and used as a FACS probe to search for huHsp47 cell surface binding proteins. […]
eGFP-tagged Hsp47 FACS probe was generated through additional genetic engineering (FIG. 8A) (SEQ ID NOS: 15-18). […] FACS analysis of mature d21 CIK with eGFP-tagged HuHsp47 as FACS probe for the FITC channel, with CE56-PE co-staining, is based on differences in the Hsp47 binding ability of the analyzed CIK. […]

[7] = test system: major serine proteases; details: Davids et al. 1995; cited from earlier work

AVLSAEQLR
solubility in aqueous solution [1]: soluble in aqueous solution | reduction of specific target lysis, CIK-OCI-Ly8 tumor cell ^51Cr cytotoxicity assay [2]: less than 10%

huHsp47-GST protein: fusion protein of human Hsp47 and N-terminally tagged glutathione-S-transferase, expressed in bacteria
protection from GvHD [3]: none developed graft vs. host disease | protection from GvHD ([3]; listed as Hsp-Gst protein): protected from the onset of GvHD, fur ruffling, weight loss and death | opportunistic infection ([3]; full body irradiated mice, BMT, over the time period tested): none developed opportunistic infection | irreversible inhibition of granzymes [4]: not able to demonstrate a function of Hsp47 as an irreversible inhibitor | reduction of EC lysis ([5]; 1 μM huHsp47-GST protein): 50% | protection of EC by purified recombinant protein ([5]; dose response): protects EC in a dose responsive fashion | protection of EC from CIK mediated lysis ([5]; pre-incubation with 10 μM huHsp47-GST protein): completely protects

B1: eGFP-huHsp47: huHsp47δRDEL-enhanced green fluorescent protein fusion protein used as FACS probe (protein)
chain: AEVKKPVEAAAPGTAEKLSSKATTLAEPSTGLAFSLYQAMAKDQAVENILVSPVVVASSLGLVSLGGKATTASQAKAVLSAEQLRDEEVHAGLGELLRSLSNSTARNVTWKLGSRLYGPSSVSFADDFVASSKQHYNCEHSKINFPDKRSALQSINEWAAQTTDGKLPEVTKDVESTDGALLVNAMFFKPHWDEKFHHKMVDNRGFMVTRSYTVGVTMMHRTGLYNYYDDEKEKLQLVEMPLAHKLSSLIILMPHHVEPLERLEKLLTKEQLKIWMGKMQKKAVAISLPKGVVEVTHDLQKHLAGLGLTEAIDKNKADLSRMSGKKDLYLASVFHATAFELDTDGNPFDQDIYGREELRSPKLFYADHPFIFLVRDTQSGSLLFIGRLVRLKGDKM
modifications: left off: large carriers
notes: huHsp47δRDEL-enhanced green fluorescent protein fusion protein used as FACS probe
CIK cells stained by eGFP-tagged Hsp47 probe [6]: 26%

B2: murine Hsp47: purified murine Hsp47 from cited work (protein, UniProt P19324 18-417, looked up)
Serpin H1: AEVKKPLEAAAPGTAEKLSSKATTLAERSTGLAFSLYQAMAKDQAVENILLSPLVVASSLGLVSLGGKATTASQAKAVLSAEKLRDEEVHTGLGELLRSLSNSTARNVTWKLGSRLYGPSSVSFADDFVRSSKQHYNCEHSKINFRDKRSALQSINEWASQTTDGKLPEVTKDVERTDGALLVNAMFFKPHWDEKFHHKMVDNRGFMVTRSYTVGVTMMHRTGLYNYYDDEKEKLQMVEMPLAHKLSSLIILMPHHVEPLERLEKLLTKEQLKAWMGKMQKKAVAISLPKGVVEVTHDLQKHLAGLGLTEAIDKNKADLSRMSGKKDLYLASVFHATAFEWDTEGNPFDQDIYGREELRSPKLFYADHPFIFLVRDNQSGSLLFIGRLVRPKGDKMRDEL
inhibition of major serine proteases [7]: failed to inhibit
